ChEMBL document CHEMBL4387733, “Design, synthesis and biological evaluation of indane derived GPR40 agoPAMs” (Bioorg Med Chem Lett, 2019)
≈ marks a conversion by molar mass, not a printed value. Calls of active or inactive are those of the source. No cut-off for these calls is given here.

Columns and labels:
[1] = test system: Rattus norvegicus; assay: Hypoglycemic activity in Sprague-Dawley rat assessed as reduction in blood glucose AUC at 0.3 mg/kg, po pretreated for 1 hr followed by glucose challenge by OGTT relative to control; format: functional
[2] = biological target: T1, Free fatty acid receptor 1 (Homo sapiens, UniProt O14842); assay: Positive allosteric modulation of recombinant human GPR40 expressed in HEK293 cells assessed as increase in [3H]-myo-inositol phosphate accumulation measured after 60 mins in presence of 100% human serum by microbeta counting method; format: functional, cell-based
T1 sequence (O14842 whole entry): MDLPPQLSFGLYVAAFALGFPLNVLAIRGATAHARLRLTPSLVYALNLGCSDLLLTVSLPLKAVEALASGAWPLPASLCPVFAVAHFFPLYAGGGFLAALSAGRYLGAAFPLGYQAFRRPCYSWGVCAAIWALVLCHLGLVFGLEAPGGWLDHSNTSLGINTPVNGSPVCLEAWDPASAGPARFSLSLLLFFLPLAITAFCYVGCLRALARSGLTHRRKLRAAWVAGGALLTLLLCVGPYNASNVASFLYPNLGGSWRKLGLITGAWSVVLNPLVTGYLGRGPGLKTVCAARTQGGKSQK

[3] = biological target: T1, Free fatty acid receptor 1; assay: Positive allosteric modulation of recombinant human GPR40 expressed in HEK293 cells assessed as increase in [3H]-myo-inositol phosphate accumulation measured after 60 mins in presence of 100% human serum by microbeta counting method relative to control; format: functional, cell-based
[4] = biological target: T1, Free fatty acid receptor 1; assay: Positive allosteric modulation of recombinant human GPR40 expressed in HEK293 cells assessed as increase in [3H]-myo-inositol phosphate accumulation measured after 60 mins in absence of human serum by microbeta counting method relative to control; format: functional, cell-based; design: concentration or dose not given beside the values
[5] = biological target: T1, Free fatty acid receptor 1; assay: Positive allosteric modulation of recombinant human GPR40 expressed in HEK293 cells assessed as increase in [3H]-myo-inositol phosphate accumulation measured after 60 mins in absence of human serum by microbeta counting method; format: functional, cell-based
[6] = Protein binding in human plasma assessed as unbound fraction level; format: ADME, cell-free
[7] = Cmax in Wistar Han rat at 1 mg/kg, iv or 2 mg/kg, po; format: ADME, organism-based; details: in vivo
[8] = Drug level in Wistar Han rat assessed as unbound fraction at 1 mg/kg, iv or 2 mg/kg, po; format: ADME, organism-based; details: in vivo
[9] = Oral bioavailability in Wistar Han rat at 2 mg/kg; format: ADME, organism-based; details: in vivo
[10] = Clearance in Wistar Han rat at 1 mg/kg, iv or 2 mg/kg, po; format: ADME, organism-based; details: in vivo
[11] = Unbound drug level in Wistar Han rat plasma at 1 mg/kg, iv or 2 mg/kg, po measured at 3 hrs; format: ADME, organism-based; details: in vivo
[12] = test system: Rattus norvegicus; assay: Hypoglycemic activity in Sprague-Dawley rat assessed as reduction in blood glucose AUC at 3 mg/kg, ip measured after 3 hrs by IPGTT relative to control; format: functional
[13] = Dose normalized AUC in Wistar Han rat at 2 mg/kg, po; format: ADME, organism-based; details: in vivo
[14] = Volume of distribution in Wistar Han rat at 1 mg/kg, iv or 2 mg/kg, po; format: ADME, organism-based; details: in vivo
[15] = Half-life in Wistar Han rat at 1 mg/kg, iv or 2 mg/kg, po; format: ADME, organism-based; details: in vivo
[16] = Total drug level in Wistar Han rat plasma at 1 mg/kg, iv or 2 mg/kg, po measured at 3 hrs; format: ADME, organism-based
[17] = Stability of the compound in pH 7.4 potassium phosphate buffer at 10 uM measured after 5 hrs; format: physicochemical; details: pH 7.4, 5 h
[18] = Drug metabolism in pH 7.4 potassium phosphate buffer assessed as TAK-875 formation at 10 uM measured after 5 hrs
[19] = biological target: T1, Free fatty acid receptor 1; assay: Agonist activity at GPR40 (unknown origin) assessed as […] in IP1 accumulation; format: functional
[20] = Solubility of the compound in FASSIF; format: physicochemical
[21] = test system: Rattus norvegicus; assay: Hypoglycemic activity in Sprague-Dawley rat assessed as reduction in blood glucose AUC at 10 mg/kg, po pretreated for 1 hr followed by glucose challenge by OGTT relative to control; format: functional; design: scale not given: the % may be the effect or the level left

SMILES	EC50 [2] [µM]	fEC50 [2] [nM]	Activity [3] [%]	Activity [4] [%]	EC50 [5] [µM]	Fu [6] [%]	also measured
Cc1cc(OCCCS(C)(=O)=O)cc(C)c1-c1cccc(COc2ccc3c(c2)OC[C@H]3CC(=O)O)c1	–	–	–	–	–	–	Activity [1]: Active
COc1ccc(F)c(-c2ccc3c(c2C2=CCCC2(C)C)CC[C@H]3Oc2cccc([C@H](C3CC3)[C@H](C)C(=O)O)c2)c1	5.45	2.3	110	101	0.326	–	–
COc1ccc(F)c(-c2cnc3c(c2)CC[C@H]3Oc2cccc([C@H](C3CC3)[C@H](C)C(=O)O)c2)c1	4.9	7.8	107	159	–	0.16	–
COc1ccc(F)c(-c2ccc(COc3cccc([C@@H](CC(=O)O)C4CC4)c3)cc2)c1	> 10	–	–	–	–	0.05	–
COc1ccc(F)c(-c2cc(F)c3c(c2)CC[C@H]3Oc2cccc([C@@H](CC(=O)O)C3CC3)c2)c1	> 10	–	–	224	–	–	–
COc1ccc(F)c(-c2ccc3c(c2)CC[C@H]3Oc2cccc([C@H](C3CC3)[C@H](C)C(=O)O)c2F)c1	0.127	0.03	264	395	0.003	0.02	Cmax [7]: 2.9 µM; Fu [8]: 0.02%; bioavailability [9]: > 100%; clearance [10]: 0.168 L/h/kg; Cp(f) [11]: 0.0005 µM; inhibition in vivo at 3 mg/kg [12]: 10%; AUC/dose [13]: 9.3 µM·h; Vd [14]: 0.85 L/kg; half-life [15]: 3.1 h; concentration at 3 h [16]: 2.5 µM
COc1cc(-c2ccc3c(c2)CC[C@H]3Oc2cccc([C@H](C3CC3)[C@H](C)C(=O)O)c2)ccn1	3.55	3.2	372	448	0.011	0.04	–
COc1ccc(F)c(-c2ccc3c(c2)CC[C@H]3Oc2cccc([C@@H](CC(=O)O)C3CC3)c2)c1	5.95	3.7	131	352	–	–	–
CC#C[C@@H](CC(=O)O)c1ccc(OCc2cccc(-c3ccc(C(F)(F)F)cc3)c2)cc1	–	–	–	–	–	–	Activity [1]: Active
COc1cc(-c2ccc3c(c2)CC[C@H]3Oc2cccc([C@H](C3CC3)[C@H](C)C(=O)O)c2F)c(F)cn1	0.245	0.08	318	342	0.002	0.05	Cmax [7]: 6.3 µM; Fu [8]: 0.05%; bioavailability [9]: > 100%; clearance [10]: 0.174 L/h/kg; Cp(f) [11]: 0.0003 µM; inhibition in vivo at 3 mg/kg [12]: 49%; AUC/dose [13]: 36.2 µM·h; Vd [14]: 0.78 L/kg; half-life [15]: 5.1 h; concentration at 3 h [16]: 0.6 µM
COc1ccc(F)c(-c2ccc3c(c2)CC[C@@H]3Oc2cccc([C@H](C3CC3)[C@H](C)C(=O)O)c2)c1	5.49	0.6	84	339	0.06	–	–
COc1cc(-c2ccc3c(c2)CC[C@H]3Oc2cccc([C@H](C3CC3)[C@H](C)C(=O)O)c2)c(F)cn1	0.867	0.26	446	472	0.003	0.03	Cmax [7]: 10.7 µM; Fu [8]: 0.03%; bioavailability [9]: 54%; clearance [10]: 0.036 L/h/kg; Cp(f) [11]: 0.00057 µM; inhibition in vivo at 3 mg/kg [12]: 94%; AUC/dose [13]: 99.9 µM·h; Vd [14]: 0.18 L/kg; half-life [15]: 3.9 h; concentration at 3 h [16]: 1.9 µM
COc1ccc(F)c(-c2ccc3c(c2)OC[C@@H]3Oc2cccc([C@@H](CC(=O)O)C3CC3)c2)c1	7.35	66	138	291	0.016	0.9	–
COc1ccc(F)c(-c2cc3c(cc2F)[C@H](Oc2cccc([C@H](C4CC4)[C@H](C)C(=O)O)c2)CC3)c1	> 10	–	–	224	0.155	–	–
COc1ccc(F)c(-c2ccc3c(c2F)CC[C@H]3Oc2cccc([C@H](C3CC3)[C@H](C)C(=O)O)c2)c1	0.81	0.32	297	352	0.0039	–	–
COc1ccc(F)c(-c2ccc3c(c2)CC[C@H]3Oc2cccc([C@H](C3CC3)[C@@H](C)C(=O)O)c2)c1	> 10	–	–	377	0.059	–	–
Cc1cc(OCCCS(C)(=O)=O)cc(C)c1-c1cccc(COc2ccc3c(c2)OC[C@H]3CC(=O)OC2O[C@H](C(=O)O)[C@@H](O)[C@H](O)[C@H]2O)c1 (some centres undefined)	–	–	–	–	–	–	Stability [17]: Unstable; Drug metabolism [18]: Metabolite detected
COc1ccc(F)c(-c2cc3c(cn2)[C@H](Oc2cccc([C@H](C4CC4)[C@H](C)C(=O)O)c2)CC3)c1	3.32	4.3	221	457	–	0.13	fold change (FC) [19]: < 100
COc1ccc(F)c(-c2ccc([C@@H]3CCc4ccc([C@H](C5CC5)[C@H](C)C(=O)O)cc4O3)cc2)c1	–	–	–	–	–	–	solubility [20]: 125 µM (≈ 57.6 µg/mL)
COc1ccc(F)c(-c2ccc3c(n2)CC[C@H]3Oc2cccc([C@H](C3CC3)[C@H](C)C(=O)O)c2)c1	> 10	–	–	366	0.151	–	–
O=C1NC(=O)C(C2CCOc3cc(Oc4ccc(C(F)(F)F)cc4Cl)ccc32)S1 (centres undefined)	–	–	–	–	–	–	Activity [21]: 97%
